Earlier results in patent publication US12133892B2, “Methods and compositions for increasing susceptibility to radiation treatment by inhibiting suppression of numerical chromosomal instability of cancer cells” (MEMORIAL SLOAN KETTERING CANCER CENTER, priority 2015, dated 2024).

Assays:
Bub1 = Bub1 (Homo sapiens, UniProt O43683)
Kif2b = details: read-out: IC50 in inhibiting Kif2b
MCAK = biological target: T1, MCAK (Homo sapiens, UniProt Q99661); details: read-out: IC50 in inhibiting MCAK
T1 sequence (Q99661 1-725): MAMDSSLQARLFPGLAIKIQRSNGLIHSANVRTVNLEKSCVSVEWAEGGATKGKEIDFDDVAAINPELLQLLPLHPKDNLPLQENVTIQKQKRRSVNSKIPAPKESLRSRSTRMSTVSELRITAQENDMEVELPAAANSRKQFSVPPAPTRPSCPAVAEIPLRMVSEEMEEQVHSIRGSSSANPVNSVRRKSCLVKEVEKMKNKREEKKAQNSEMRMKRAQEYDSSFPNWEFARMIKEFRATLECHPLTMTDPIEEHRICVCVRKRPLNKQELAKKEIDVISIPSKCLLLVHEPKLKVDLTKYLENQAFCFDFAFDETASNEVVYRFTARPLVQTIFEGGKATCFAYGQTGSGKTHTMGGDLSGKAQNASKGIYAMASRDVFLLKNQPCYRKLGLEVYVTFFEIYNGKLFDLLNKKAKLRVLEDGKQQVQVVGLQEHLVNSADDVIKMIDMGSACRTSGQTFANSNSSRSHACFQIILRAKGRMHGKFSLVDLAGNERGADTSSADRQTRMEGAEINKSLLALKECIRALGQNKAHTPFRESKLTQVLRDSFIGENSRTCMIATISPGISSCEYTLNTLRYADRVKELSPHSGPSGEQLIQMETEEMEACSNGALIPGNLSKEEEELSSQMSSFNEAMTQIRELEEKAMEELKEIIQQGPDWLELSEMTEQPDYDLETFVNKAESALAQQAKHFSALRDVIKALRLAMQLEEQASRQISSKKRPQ

human glioblastoma = details: 100 mg/kg
[1] = test system: triple negative breast cancer, colon cancer and liver cancer; details: animal models of triple negative breast cancer
[2] = mice, 7 days, 7.5, 22.5, 75.0 mg/kg twice a day oral
breast cancer model = details: mice, twice a day for 28 days, orally 10, 25, 50 mg/kg
PLK4 = biological target: T2, PLK4 (Homo sapiens, UniProt O00444); details: in vitro; read-out: inhibition constant (Ki)
T2 sequence (O00444 1-970): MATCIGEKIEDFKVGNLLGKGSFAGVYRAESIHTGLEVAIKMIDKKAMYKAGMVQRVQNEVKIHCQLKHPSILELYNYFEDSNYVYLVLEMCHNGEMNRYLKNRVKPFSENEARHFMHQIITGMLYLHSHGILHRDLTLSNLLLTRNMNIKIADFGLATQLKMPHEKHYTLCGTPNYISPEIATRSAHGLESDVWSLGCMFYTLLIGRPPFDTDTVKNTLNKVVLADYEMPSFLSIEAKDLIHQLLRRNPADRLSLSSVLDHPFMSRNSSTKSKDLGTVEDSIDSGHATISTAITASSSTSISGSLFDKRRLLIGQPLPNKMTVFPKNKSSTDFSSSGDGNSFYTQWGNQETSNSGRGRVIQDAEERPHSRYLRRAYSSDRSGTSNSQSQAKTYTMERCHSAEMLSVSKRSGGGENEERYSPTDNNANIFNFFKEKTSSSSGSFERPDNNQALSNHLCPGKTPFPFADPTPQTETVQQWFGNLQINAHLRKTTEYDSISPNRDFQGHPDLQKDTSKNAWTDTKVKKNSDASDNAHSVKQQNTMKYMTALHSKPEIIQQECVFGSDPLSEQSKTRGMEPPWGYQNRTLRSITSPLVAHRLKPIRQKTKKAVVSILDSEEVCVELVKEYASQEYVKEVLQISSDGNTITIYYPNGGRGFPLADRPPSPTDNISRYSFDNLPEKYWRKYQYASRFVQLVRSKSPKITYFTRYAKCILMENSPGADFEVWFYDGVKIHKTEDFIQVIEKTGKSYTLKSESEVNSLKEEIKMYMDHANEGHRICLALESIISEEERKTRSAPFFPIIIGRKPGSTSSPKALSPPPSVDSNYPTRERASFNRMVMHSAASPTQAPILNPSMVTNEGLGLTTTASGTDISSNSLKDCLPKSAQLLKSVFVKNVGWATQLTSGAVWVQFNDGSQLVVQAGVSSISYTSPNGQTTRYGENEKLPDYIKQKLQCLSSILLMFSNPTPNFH

Chain of Bub1 (O43683 whole entry, species assumed): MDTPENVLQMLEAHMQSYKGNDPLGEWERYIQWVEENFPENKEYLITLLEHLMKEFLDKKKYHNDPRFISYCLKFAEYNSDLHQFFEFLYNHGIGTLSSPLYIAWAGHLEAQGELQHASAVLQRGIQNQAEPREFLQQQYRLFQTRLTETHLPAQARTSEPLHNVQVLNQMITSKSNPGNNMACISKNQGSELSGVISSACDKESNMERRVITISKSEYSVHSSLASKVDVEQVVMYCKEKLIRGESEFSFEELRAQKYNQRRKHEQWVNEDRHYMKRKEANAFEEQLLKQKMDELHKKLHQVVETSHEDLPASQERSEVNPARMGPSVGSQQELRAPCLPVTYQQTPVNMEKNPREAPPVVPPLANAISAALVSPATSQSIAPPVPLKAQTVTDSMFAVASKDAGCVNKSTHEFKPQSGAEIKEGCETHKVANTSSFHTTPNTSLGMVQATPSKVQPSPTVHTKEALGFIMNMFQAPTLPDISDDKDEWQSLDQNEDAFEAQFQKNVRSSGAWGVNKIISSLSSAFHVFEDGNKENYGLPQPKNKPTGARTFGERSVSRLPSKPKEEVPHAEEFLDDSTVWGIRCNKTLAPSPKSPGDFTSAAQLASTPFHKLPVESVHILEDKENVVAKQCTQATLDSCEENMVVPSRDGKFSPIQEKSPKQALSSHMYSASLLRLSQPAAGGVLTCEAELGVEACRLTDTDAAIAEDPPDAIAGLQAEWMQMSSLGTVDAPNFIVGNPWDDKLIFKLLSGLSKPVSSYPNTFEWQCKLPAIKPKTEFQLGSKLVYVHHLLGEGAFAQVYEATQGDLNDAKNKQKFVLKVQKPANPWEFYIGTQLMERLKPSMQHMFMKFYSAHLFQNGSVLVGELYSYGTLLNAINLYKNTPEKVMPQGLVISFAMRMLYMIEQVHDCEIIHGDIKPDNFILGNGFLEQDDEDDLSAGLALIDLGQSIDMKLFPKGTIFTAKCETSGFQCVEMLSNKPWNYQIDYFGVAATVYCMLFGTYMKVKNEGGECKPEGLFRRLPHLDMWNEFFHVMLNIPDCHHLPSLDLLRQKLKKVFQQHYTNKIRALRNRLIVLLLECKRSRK

CC(C)(C)n1nc(Cc2ccccc2O)c2c(N)ncnc21 [2OH-BNPP1]
IC50 (Bub1): ~250 nM

COc1ccc2c(c1)[C@]1(C[C@H]1c1ccc3c(/C=C/c4ccc(CN5C[C@@H](C)O[C@@H](C)C5)cc4)n[nH]c3c1)C(=O)N2 [CFI-400945]
chromosome missegregation rates (breast cancer cell lines): increase chromosome missegregation rates

CC1=C(C(=O)OC(C)C)C(c2ccc(Cl)cc2)n2c(s/c(=C\c3ccc(OCC(=O)O)cc3)c2=O)=N1 (stereo not drawn) [DHTP, (Z)-2-(4-((5-(4-chlorophenyl)-6-(isopropoxycarbonyl)-7-methyl-3-oxo-3,5-dihydro-2H-thiazolo[3,2-a]pyrimidin-2-ylidene)methyl)phenoxy)acetic acid]
IC50 (Kif2b): 1200 nM | IC50 (MCAK): 4600 nM

CCc1cccc(CC)c1NC(=O)c1nn(C)c2c1CCc1cnc(Nc3ccc(C(=O)NC4CCN(C)CC4)cc3OC(F)(F)F)nc1-2 [NMS-P715]
radiosensitization of human glioblastoma (human glioblastoma): enhances radiosensitization of human glioblastoma

COc1cc2c(cc1F)C(c1ccccc1Cl)=Nc1c(n[nH]c1C)N2 [R1530]
expression of mitotic checkpoint kinase BubR1 (BubR1): downregulates

COc1ccc(Oc2cc(C)c(-c3csc(NC(=O)c4ccncc4)n3)c(C)c2)cc1 [TAI-1]
oral efficacy in vivo [1]: effective orally | change in body weight, organ weight, and plasma indices [2]: no significant change

COCCOc1cnc(Sc2cc(C)c(-c3csc(NC(=O)c4ccncc4)n3)c(C)c2)cn1 [TAI-95]
oral efficacy in vivo (breast cancer model): excellent oral efficacy

COc1c(Nc2cc(C)[nH]n2)nc(Sc2ccc(S(=O)(=O)Cc3cccc([N+](=O)[O-])c3F)cc2F)nc1N1CCCCC1 [centrinone-B]
centrosome depletion at concentration (centrosome): 500 nM | Ki (PLK4): 0.6 nM

COc1c(Nc2cc(C)[nH]n2)nc(Sc2ccc(S(=O)(=O)Cc3cccc([N+](=O)[O-])c3F)cc2F)nc1N1CCOCC1 [centrinone]
centrosome depletion at concentration (centrosome): 100 nM
